# From ChEMBL document CHEMBL1201862, “PubChem BioAssay data set” (2004)
#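 In this assay, cells in 96-well plates receive the compound at five concentrations for 48 hours. Endpoints are linearly interpolated between the surrounding concentrations. The concentration for 50% growth inhibition is given as GI50.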 Calls of active or inactive are those of the source. Rule as the data show it: active = GI50 up to about 1.1 µM and inactive = higher.
# How the values were obtained:
# Assay in all cases: inhibition of tumour cell growth, NCI panel, 48 h
# [1] = test system: A498
# [2] = test system: CCRF-CEM
# [3] = test system: COLO 205
# [4] = test system: EKVX
# [5] = test system: HCC 2998
# [6] = test system: HCT-15
# [7] = test system: HL-60
# [8] = test system: IGROV-1
# [9] = test system: K562
# [10] = test system: KM12
# [11] = test system: MCF7
# [12] = test system: MOLT-4
# [13] = test system: NCI-H226
# [14] = test system: OVCAR-8
# [15] = test system: SK-MEL-2
# [16] = test system: SK-OV-3
# [17] = test system: SNB-75
# [18] = test system: UACC-257
# [19] = test system: UACC-62
# [20] = test system: UO-31
Compound,GI50 [1],GI50 [2],GI50 [3],GI50 [4],GI50 [5],GI50 [6] [µM],GI50 [7],GI50 [8],GI50 [9],GI50 [10],GI50 [11],GI50 [12],GI50 [13],GI50 [14],GI50 [15],GI50 [16],GI50 [17],GI50 [18],GI50 [19],GI50 [20]
C=CCn1c2ccccc2c2c(C)c3cnccc3c(C)c21,6.34 µM (inactive),4.12 µM (inactive),6.4 µM (inactive),12.1 µM (inactive),20.4 µM (inactive),6.92,3.17 µM (inactive),8.75 µM (inactive),5.6 µM (inactive),4.38 µM (inactive),5.52 µM (inactive),2.95 µM (inactive),5.16 µM (inactive),5.53 µM (inactive),15.8 µM (inactive),5.9 µM (inactive),13.2 µM (inactive),7.23 µM (inactive),9.35 µM (inactive),4.39 µM (inactive)
C=CC12CN(C)C3C4COC(CC41)C1(C(=O)Nc4ccccc41)C32 (stereo not given),9.29 µM (inactive),96.6 µM (inactive),> 149 µM (inactive),> 200 µM (inactive),> 151 µM (inactive),> 195,152 µM (inactive),> 200 µM (inactive),165 µM (inactive),168 µM (inactive),> 200 µM (inactive),> 200 µM (inactive),6.67 µM (inactive),> 200 µM (inactive),> 148 µM (inactive),> 20 µM (inactive),146 µM (inactive),> 200 µM (inactive),> 178 µM (inactive),> 181 µM (inactive)
Cc1[nH]c(=O)[nH]c(=O)c1/C=C/C(=O)NC(CO)C[S+]([O-])Cc1ccccc1 (stereo not given),> 300 µM (inactive),> 300 µM (inactive),> 300 µM (inactive),> 300 µM (inactive),> 300 µM (inactive),> 300,> 300 µM (inactive),> 300 µM (inactive),> 300 µM (inactive),299 µM (inactive),> 300 µM (inactive),> 300 µM (inactive),> 300 µM (inactive),> 300 µM (inactive),> 277 µM (inactive),> 300 µM (inactive),296 µM (inactive),> 300 µM (inactive),> 300 µM (inactive),> 300 µM (inactive)
